# Laboratory results: patent publication US20070259435A1, “Intravenous Drug Administration and Blood Sampling Model in the Awake Rat” (priority 2004, published 2007)
# Structures can show the parent of a compound that is named as a salt. Where two headings read alike, the source gives them in different places.
# Assays:
# [1] = in vivo; conditions: male, Sprague-Dawley, rat, single oral 5 mg/kg, Mean
# From the text: (§1) Male SPF Sprague-Dawley rats (200-300 g, Charles River, Germany) were used throughout the study. Animals were allowed to acclimatize for one week prior to each part of the study. Tap water and food were available ad libitum.
# (§2) The plasma concentration profile and major PK parameters of different chemical structures were investigated following oral administration. Blood samples were taken from the tail vein with either the multiple or single sampling method.
# (§3) For both methods, the same formulation per compound was used to ensure any differences in results were not due to formulation effects. Test compounds JNJ1 (a farnesyl transferase compound), JNJ2 (galantamine hydrobromide) and JNJ3 (a CRF antagonist) were formulated in demineralized water or a 10% hydroxypropyl- -β cyclodextrin (HP- - ? CD) solution at final concentrations of between 0.25 and 1 mg/ml. All formulations were stored at room temperature, protected from light and analysed quantitatively. Animals were orally dosed by gastric intubation using a volume of 10 ml/kg.
# After dosing the compound, blood samples were taken at the desired time points. For the single sampling method, three animals per time point were sacrificed by decapitation and blood was collected by exsanguination into 10 ml B-D Sterile EDTA K3 Vacutainer tubes. For the multiple sampling technique 0.3 ml venous blood was repeatedly collected from the tail vein as described above. […] Plasma samples were analysed for the appropriate compound using individual qualified research LC-MS/MS methods as described in section 2.4.
# For all compounds, individual calibration curves were constructed in blank EDTA rat plasma (covering the expected concentration range). […] After sample preparation, the (reconstituted) residues were pipetted in polypropylene auto sampler vials and analysed using individual qualified research methods.
# Aliquots of the residues were analysed using multiple reaction monitoring (MRM) liquid chromatography coupled to tandem mass spectrometry (LC-MS/MS) (API-3000 or 4000, Applied Biosystems, Canada). Chromatographic separation was obtained on commercial base deactivated C-18 columns of different brands, depending on the chromatographic behaviour of the compounds to be analysed. […] Final concentrations were calculated by interpolation from the calibration curves response, using a linear regression model. […]
# A limited PK analysis was performed using WinNonlin™ Professional (Version 3.3). […] Average values were then calculated to compare the multiple and the single sampling method. The PK parameters calculated were observed maximum plasma concentration (Cmax), the time to reach the maximum plasma concentration (Tmax), plasma half-life (t1/2) and exposure of the compound calculated by the area under the curve (AUClast and AUCinf). […]
# [2] = in vivo; conditions: male, Sprague-Dawley, rat, po, 5 mg/kg, single oral 5 mg/kg, multiple sampling
# From the text: as §1
# For multiple blood sampling via the tail vein the animals were placed in a rodent cylindrical restrainer developed by the Scientific Instrument Division (Johnson & Johnson, Pharmaceutical Research and Development, division of Janssen Pharmaceutica). The rat's tail was warmed using an infra red lamp to facilitate the sampling. Venous blood was collected by a 27 G needle into Multivette 600KE tubes containing EDTA (Sarstedt, Germany).
# as §2, §3
# After dosing the compound, blood samples were taken at the desired time points. For the single sampling method, three animals per time point were sacrificed by decapitation and blood was collected by exsanguination into 10 ml B-D Sterile EDTA K3 Vacutainer tubes. For the multiple sampling technique 0.3 ml venous blood was repeatedly collected from the tail vein as described above. For each compound, 3 rats were used for a complete plasma concentration time profile. Plasma samples were analysed for the appropriate compound using individual qualified research LC-MS/MS methods as described in section 2.4.
# For all compounds, individual calibration curves were constructed in blank EDTA rat plasma (covering the expected concentration range). Independent quality control samples (QC) were prepared in rat EDTA plasma at four concentration levels in duplicate, covering the entire calibration range. The study samples, calibration and QC samples were extracted using a generic sample preparation method. After sample preparation, the (reconstituted) residues were pipetted in polypropylene auto sampler vials and analysed using individual qualified research methods.
# Aliquots of the residues were analysed using multiple reaction monitoring (MRM) liquid chromatography coupled to tandem mass spectrometry (LC-MS/MS) (API-3000 or 4000, Applied Biosystems, Canada). Chromatographic separation was obtained on commercial base deactivated C-18 columns of different brands, depending on the chromatographic behaviour of the compounds to be analysed. The mass spectrometers were operated in the TurbolonSpray TM mode (positive ion electrospray ionisation). For each compound the mass spectrometer was optimised to measure a selective parent-daughter transition. Integration of the chromatographic peaks was performed using the Analist software version 1.2 (Applied Biosystem, Canada). Final concentrations were calculated by interpolation from the calibration curves response, using a linear regression model. Both accuracy and precision were within expectations for all compounds, allowing accurate PK calculations
# A limited PK analysis was performed using WinNonlin™ Professional (Version 3.3). For the single sampling method, a non-compartmental data analysis was carried out on the mean plasma concentration profile (n=3/time point). For the multiple sampling method, a non-compartmental data analysis was carried out on the plasma concentration time profiles obtained from each animal (n=3). […]
compound,measurement,setting,value
"COc1ccc2c3c1O[C@H]1C[C@@H](O)C=C[C@@]31CCN(C)C2 [JNJ2, galantamine hydrobromide]",AUC(0-inf),[1]; read-out: AUCinf (extrapolated exposure),1440 ng·h/mL
same,AUC(0-t),[1]; read-out: AUClast (observed exposure),1380 ng·h/mL
same,Cmax,[1]; read-out: Cmax (maximum plasma concentration),155 ng/mL
same,half-life,[1]; read-out: t1/2 (half life) (converted),4.93 h
same,AUC(0-inf),"[2]; Mean, read-out: AUCinf (extrapolated exposure)",1180 ng·h/mL
same,AUC(0-t),"[2]; Mean, read-out: AUClast (observed exposure)",1100 ng·h/mL
same,Cmax,"[2]; Mean, read-out: Cmax (maximum plasma concentration)",113 ng/mL
same,half-life,"[2]; Mean, read-out: t1/2 (half life) (converted)",5.75 h
same,AUC(0-inf),"[2]; Rat 1, read-out: AUCinf (extrapolated exposure)",1440 ng·h/mL
same,AUC(0-t),"[2]; Rat 1, read-out: AUClast (observed exposure)",1310 ng·h/mL
same,Cmax,"[2]; Rat 1, read-out: Cmax (maximum plasma concentration)",135 ng/mL
same,half-life,"[2]; Rat 1, read-out: t1/2 (half life) (converted)",6.81 h
same,AUC(0-inf),"[2]; Rat 2, read-out: AUCinf (extrapolated exposure)",1180 ng·h/mL
same,AUC(0-t),"[2]; Rat 2, read-out: AUClast (observed exposure)",1120 ng·h/mL
same,Cmax,"[2]; Rat 2, read-out: Cmax (maximum plasma concentration)",96.3 ng/mL
same,half-life,"[2]; Rat 2, read-out: t1/2 (half life) (converted)",4.89 h
same,AUC(0-inf),"[2]; Rat 3, read-out: AUCinf (extrapolated exposure)",913 ng·h/mL
same,AUC(0-t),"[2]; Rat 3, read-out: AUClast (observed exposure)",866 ng·h/mL
same,Cmax,"[2]; Rat 3, read-out: Cmax (maximum plasma concentration)",108 ng/mL
same,half-life,"[2]; Rat 3, read-out: t1/2 (half life) (converted)",5.65 h
